17 compounds from US7626031B2, “Substituted 3-(diarylmethylene)indolin-2-ones and methods of their use” (Symphony Evolution, Inc., priority 2002, dated 2009) can be followed below.

The target of one assay is Fyn (Homo sapiens, UniProt P06241). Description: Kinase assay, Fyn. Type of assay: biochemical. Here is the method:
(§1) Kinase activity and compound inhibition are investigated using one or more assay formats. The ATP concentrations for each assay are selected to be close to the Michaelis-Menten constant (KM) for each individual kinase. Dose-response experiments are performed at 10 different inhibitor concentrations in a 384-well plate format. […] Exemplary kinase assays are described below. KDR Assay

Another assay concerns the target FGFR1 (Homo sapiens, UniProt P11362). Description: Kinase assay, FGFR1 (33P-ATP incorporation or luciferase-coupled ATP consumption). Type of assay: biochemical. On the procedure:
(§2) Kinase assays were performed by measurement of incorporation of γ-^33P ATP into immobilized myelin basic protein (MBP). […] Plates were washed 3× with 100 μl TBS. […] Compound dilutions were performed in DMSO and added to assay wells to a final DMSO concentration of 1%. Each data point was measured in duplicate, and at least two duplicate assays were performed for each individual compound determination. Enzyme was added to final concentrations of 10 nM or 20 nM, for example. A mixture of unlabeled ATP and γ-^33P ATP was added to start the reaction (2×10^6 cpm of γ-^33P ATP per well (3000 Ci/mmole) and either 10 μM or 30 μM unlabeled ATP, typically. The reactions were carried out for 1 hour at room temperature with shaking. Plates were washed 7× with TBS, followed by the addition of 50 μl/well scintillation fluid (Wallac). Plates were read using a Wallac Trilux counter. This is only one format of such assays, various other formats are possible, as known to one of ordinary skill in the art.
(§3) Tyrosine kinase activity is determined by 1) measurement of kinase-dependent ATP consumption by in the presence of a generic substrate such as, polyglutamic acid, tyrosine, 4:1 (pEY), by luciferase/luciferin-mediated chemiluminescence or; 2) incorporation of radioactive phosphate derived from ^33P-ATP into a generic substrate which has been adsorbed onto the well surface of polystyrene microtiter plates. Phosphorylated substrate products are quantified by scintillation spectrometry.
as §1

The target of another assay is EphA2 (Homo sapiens, UniProt P29317). Put plainly: Kinase assay, EphA2 (33P-ATP incorporation or luciferase-coupled ATP consumption). The format is biochemical. On the procedure: as §2, §3, §1
The target of another assay is EGFR (Homo sapiens, UniProt P00533). Description: Kinase assay, EGFR (33P-ATP incorporation or luciferase-coupled ATP consumption). The format is biochemical. Here is the method: as §2, §3, §1
A further assay has as its target PDGFR alpha (Homo sapiens, UniProt P16234). Put plainly: Kinase assay, PDGFR alpha (33P-ATP incorporation or luciferase-coupled ATP consumption). Conditions: read-out: PDGF-R-A IC50. The format is biochemical. On the procedure:
as §2, §3, §1

For a further assay, the target named is IRK (Homo sapiens, UniProt P06213). Description: Kinase assay, IRK. The format is biochemical. Here is the method: as §1
The target in assay [1] is T1, KDR (baculovirus expressed human KDR kinase domain D807-V1356) (Homo sapiens, UniProt P35968).
T1 construct: human KDR kinase domain D807-V1356; host or cells: baculovirus expression system
Description: biochemical. Here is the method:
as §1
KDR biochemical activity was assessed using a Luciferase-Coupled Chemiluminescent Kinase assay (LCCA) format. Kinase activity was measured as the percent ATP remaining following the kinase reaction. Remaining ATP was detected by luciferase-luciferin-coupled chemiluminescence. […] The mixture is incubated at ambient temperature for 4 hours after which 20 uL luciferase-luciferin mix is added and the chemiluminescent signal read using a Wallac Victor^2 reader.

Chain of EphA2 (P29317 24-976, species assumed): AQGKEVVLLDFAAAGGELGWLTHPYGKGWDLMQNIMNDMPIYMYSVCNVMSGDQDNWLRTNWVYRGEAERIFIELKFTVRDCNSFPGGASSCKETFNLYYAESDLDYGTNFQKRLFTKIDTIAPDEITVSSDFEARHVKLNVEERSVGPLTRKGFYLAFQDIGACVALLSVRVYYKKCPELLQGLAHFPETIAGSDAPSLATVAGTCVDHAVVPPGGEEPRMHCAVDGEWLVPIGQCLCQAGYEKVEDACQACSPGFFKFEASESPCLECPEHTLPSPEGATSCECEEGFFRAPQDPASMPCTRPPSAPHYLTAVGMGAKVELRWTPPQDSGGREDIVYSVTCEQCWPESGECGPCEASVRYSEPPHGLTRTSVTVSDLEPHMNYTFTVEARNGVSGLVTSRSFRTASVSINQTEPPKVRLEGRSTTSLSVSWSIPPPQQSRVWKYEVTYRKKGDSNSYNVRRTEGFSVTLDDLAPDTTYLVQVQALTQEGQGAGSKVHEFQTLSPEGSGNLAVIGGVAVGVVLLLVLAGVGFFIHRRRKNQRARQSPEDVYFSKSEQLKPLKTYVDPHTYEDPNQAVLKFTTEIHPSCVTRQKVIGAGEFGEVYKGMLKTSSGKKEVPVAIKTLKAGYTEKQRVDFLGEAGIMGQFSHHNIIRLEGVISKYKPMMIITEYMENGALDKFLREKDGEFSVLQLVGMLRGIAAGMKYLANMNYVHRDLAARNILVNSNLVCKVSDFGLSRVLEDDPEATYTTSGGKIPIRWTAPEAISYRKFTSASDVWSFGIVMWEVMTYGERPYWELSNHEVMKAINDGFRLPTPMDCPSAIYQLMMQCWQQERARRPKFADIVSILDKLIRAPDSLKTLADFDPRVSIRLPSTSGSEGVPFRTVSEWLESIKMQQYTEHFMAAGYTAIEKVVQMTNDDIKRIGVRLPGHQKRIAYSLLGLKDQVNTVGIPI
Chain of PDGFR alpha (P16234 24-1089): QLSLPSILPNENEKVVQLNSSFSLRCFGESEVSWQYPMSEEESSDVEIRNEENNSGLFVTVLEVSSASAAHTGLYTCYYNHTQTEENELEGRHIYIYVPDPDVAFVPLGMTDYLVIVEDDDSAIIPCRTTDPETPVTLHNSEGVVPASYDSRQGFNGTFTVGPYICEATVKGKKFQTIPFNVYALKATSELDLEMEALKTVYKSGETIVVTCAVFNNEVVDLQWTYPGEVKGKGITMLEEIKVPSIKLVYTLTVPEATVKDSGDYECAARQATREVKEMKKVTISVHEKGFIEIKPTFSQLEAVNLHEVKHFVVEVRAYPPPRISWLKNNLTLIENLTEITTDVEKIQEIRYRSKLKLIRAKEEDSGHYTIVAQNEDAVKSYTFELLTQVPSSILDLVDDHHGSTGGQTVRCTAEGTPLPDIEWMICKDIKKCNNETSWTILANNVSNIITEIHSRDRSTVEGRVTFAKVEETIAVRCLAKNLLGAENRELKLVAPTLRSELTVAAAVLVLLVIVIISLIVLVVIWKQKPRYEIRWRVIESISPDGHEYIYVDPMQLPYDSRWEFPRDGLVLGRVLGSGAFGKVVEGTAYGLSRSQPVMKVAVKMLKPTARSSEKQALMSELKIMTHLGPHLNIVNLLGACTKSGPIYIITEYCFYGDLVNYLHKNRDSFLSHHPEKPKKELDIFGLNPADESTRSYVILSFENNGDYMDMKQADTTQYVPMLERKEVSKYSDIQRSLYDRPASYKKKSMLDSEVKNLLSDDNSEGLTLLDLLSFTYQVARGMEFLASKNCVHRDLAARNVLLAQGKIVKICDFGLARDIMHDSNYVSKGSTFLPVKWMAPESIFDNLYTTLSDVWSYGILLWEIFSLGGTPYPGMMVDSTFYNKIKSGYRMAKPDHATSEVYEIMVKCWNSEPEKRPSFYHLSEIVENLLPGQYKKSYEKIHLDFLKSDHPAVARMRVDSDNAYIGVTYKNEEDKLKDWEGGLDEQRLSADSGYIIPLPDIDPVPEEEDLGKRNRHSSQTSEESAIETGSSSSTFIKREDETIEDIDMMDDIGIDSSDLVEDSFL
Chain of FGFR1 (P11362 22-822, species assumed): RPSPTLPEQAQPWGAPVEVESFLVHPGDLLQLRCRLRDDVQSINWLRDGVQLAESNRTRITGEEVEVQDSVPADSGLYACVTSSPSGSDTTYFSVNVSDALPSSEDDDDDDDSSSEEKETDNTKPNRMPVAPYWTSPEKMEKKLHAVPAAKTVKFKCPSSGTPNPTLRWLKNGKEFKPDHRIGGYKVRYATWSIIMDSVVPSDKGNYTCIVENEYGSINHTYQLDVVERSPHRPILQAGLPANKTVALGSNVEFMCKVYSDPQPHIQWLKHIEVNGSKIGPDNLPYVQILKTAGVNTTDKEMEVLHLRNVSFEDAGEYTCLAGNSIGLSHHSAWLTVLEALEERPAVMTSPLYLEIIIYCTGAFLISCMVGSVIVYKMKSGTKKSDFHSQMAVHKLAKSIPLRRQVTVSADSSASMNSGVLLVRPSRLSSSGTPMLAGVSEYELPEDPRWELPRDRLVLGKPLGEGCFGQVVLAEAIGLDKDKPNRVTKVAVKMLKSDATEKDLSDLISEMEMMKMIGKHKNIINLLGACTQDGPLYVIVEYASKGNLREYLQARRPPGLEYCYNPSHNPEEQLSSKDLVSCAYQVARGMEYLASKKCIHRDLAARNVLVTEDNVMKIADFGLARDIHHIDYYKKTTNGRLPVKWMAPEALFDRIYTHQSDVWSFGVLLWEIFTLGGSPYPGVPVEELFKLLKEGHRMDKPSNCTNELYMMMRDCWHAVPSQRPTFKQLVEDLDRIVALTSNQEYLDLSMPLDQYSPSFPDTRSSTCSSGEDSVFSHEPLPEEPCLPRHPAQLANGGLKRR
Chain of Fyn (P06241 whole entry, species assumed): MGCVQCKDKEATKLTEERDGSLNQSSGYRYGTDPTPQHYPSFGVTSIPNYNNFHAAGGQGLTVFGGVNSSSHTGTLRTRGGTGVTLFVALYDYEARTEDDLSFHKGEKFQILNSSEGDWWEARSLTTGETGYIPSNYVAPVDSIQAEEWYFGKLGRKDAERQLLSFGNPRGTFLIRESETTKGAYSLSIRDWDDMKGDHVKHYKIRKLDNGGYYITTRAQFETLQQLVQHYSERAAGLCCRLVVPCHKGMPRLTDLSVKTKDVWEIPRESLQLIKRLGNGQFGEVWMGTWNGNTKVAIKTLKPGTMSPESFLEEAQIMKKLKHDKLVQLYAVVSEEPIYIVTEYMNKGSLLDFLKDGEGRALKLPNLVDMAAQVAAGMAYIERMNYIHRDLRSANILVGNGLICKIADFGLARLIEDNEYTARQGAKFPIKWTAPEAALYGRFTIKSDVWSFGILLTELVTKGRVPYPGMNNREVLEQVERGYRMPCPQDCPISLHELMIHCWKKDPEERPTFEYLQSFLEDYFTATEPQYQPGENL
Chain of EGFR (P00533 25-1210, species assumed): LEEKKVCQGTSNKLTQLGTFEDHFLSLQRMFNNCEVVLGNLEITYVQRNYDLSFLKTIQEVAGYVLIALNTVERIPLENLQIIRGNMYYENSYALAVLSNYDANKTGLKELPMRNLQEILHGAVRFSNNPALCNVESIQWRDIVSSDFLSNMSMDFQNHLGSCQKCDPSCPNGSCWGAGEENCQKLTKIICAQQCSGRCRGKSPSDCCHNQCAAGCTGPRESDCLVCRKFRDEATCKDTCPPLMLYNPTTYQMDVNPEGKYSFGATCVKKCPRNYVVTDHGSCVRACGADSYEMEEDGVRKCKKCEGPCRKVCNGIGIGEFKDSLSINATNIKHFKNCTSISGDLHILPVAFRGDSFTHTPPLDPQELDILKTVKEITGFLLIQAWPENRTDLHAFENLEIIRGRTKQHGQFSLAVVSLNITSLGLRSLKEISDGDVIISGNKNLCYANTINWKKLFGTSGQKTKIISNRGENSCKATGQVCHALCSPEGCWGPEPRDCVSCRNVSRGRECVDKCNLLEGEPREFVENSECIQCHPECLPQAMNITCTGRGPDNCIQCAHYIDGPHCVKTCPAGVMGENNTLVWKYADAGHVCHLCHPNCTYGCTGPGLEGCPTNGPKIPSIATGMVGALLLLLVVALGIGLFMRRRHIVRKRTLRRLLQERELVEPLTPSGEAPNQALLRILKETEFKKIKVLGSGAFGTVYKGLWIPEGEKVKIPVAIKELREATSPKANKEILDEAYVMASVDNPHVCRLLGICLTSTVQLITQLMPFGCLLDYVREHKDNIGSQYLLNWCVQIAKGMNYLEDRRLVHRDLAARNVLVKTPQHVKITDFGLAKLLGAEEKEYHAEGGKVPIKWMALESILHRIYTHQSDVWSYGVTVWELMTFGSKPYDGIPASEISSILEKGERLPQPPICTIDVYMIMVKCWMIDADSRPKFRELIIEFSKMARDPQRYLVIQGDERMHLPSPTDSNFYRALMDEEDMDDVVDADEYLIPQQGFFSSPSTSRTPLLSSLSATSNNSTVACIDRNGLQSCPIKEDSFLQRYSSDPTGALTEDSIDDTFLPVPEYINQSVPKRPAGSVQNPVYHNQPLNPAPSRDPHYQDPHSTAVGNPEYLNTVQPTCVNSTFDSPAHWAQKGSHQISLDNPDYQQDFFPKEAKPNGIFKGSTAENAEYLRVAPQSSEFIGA
T1 sequence (P35968 807-1356): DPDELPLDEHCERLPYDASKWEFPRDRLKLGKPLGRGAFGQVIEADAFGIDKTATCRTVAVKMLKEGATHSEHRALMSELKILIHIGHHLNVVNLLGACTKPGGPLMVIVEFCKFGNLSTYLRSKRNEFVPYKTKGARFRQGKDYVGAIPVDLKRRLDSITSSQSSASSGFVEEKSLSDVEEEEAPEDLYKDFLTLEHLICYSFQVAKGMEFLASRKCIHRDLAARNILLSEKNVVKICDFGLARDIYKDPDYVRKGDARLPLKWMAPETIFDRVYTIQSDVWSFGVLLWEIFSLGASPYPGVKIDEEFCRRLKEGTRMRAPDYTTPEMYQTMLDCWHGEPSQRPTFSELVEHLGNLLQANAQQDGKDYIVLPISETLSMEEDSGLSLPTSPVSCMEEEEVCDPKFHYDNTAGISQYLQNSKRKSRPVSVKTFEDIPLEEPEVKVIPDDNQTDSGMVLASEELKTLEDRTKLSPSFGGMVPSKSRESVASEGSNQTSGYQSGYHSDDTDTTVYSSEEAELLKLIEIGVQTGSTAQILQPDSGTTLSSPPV

As a reminder, the IC50 is the point on the concentration scale where inhibition reaches its midpoint. As to `COCCN1CCC(Nc2ccc3c(c2)/C(=C(\c2ccc(Cl)cc2)c2ncc[nH]2)C(=O)N3)CC1` [Entry 91, (3Z)-3-[(4-chlorophenyl)(1H-imidazol-2-yl)methylidene]-5-({1-[2-(methyloxy)ethyl]piperidin-4-yl}amino)-1,3-dihydro-2H-indol-2-one], the IC50 against Fyn is less than 50 nM; against FGFR1 it was less than 50 nM; against EphA2, 500 to 5000 nM; against EGFR, more than 5000 nM; at PDGFR alpha it was less than 50 nM; against IRK, 500 to 5000 nM. Besides, the IC50 in assay [1] was less than 50 nM.
For the compound `COCCN1CCC(Nc2ccc3c(c2)/C(=C(\c2ccc(C)c(F)c2)c2ncc[nH]2)C(=O)N3)CC1` [Entry 63, (3Z)-3-[(3-fluoro-4-methylphenyl)(1H-imidazol-2-yl)methylidene]-5-({1-[2-(methyloxy)ethyl]piperidin-4-yl}amino)-1,3-dihydro-2H-indol-2-one], the IC50 is less than 50 nM against Fyn; less than 50 nM on FGFR1; 50 to 500 nM on EphA2; 50 to 500 nM against EGFR; less than 50 nM on PDGFR alpha; 500 to 5000 nM against IRK. Besides, in assay [1], the IC50 is less than 50 nM.
For the compound `CCN1CCC(Nc2ccc3c(c2)/C(=C(/c2cc(F)cc(F)c2)c2nc4cc(F)ccc4[nH]2)C(=O)N3)CC1` [Entry 61, (3E)-3-[(3,5-difluorophenyl)(5-fluoro-1H-benzimidazol-2-yl)methylidene]-5-[(1-ethylpiperidin-4-yl)amino]-1,3-dihydro-2H-indol-2-one], the IC50 on Fyn was less than 50 nM; on FGFR1, 50 to 500 nM; at EphA2, more than 5000 nM; at EGFR, more than 5000 nM; on PDGFR alpha, less than 50 nM; against IRK, more than 5000 nM. The IC50 in assay [1] is less than 50 nM.
For `COCCN1CCC(Nc2ccc3c(c2)/C(=C(\c2ccc(F)c(Cl)c2)c2ncc[nH]2)C(=O)N3)CC1` [Entry 80], the IC50 was 50 to 500 nM on Fyn; 50 to 500 nM at FGFR1; 500 to 5000 nM at EphA2; more than 5000 nM on EGFR; 50 to 500 nM on PDGFR alpha; more than 5000 nM against IRK. This compound yielded an IC50 in assay [1] of less than 50 nM.
In the case of `O=C1Nc2ccc(NC3CCN(CCN4CCCC4)CC3)cc2/C1=C(\c1cccc(F)c1)c1ncc[nH]1` [Entry 85, (3Z)-3-[(3-fluorophenyl)(1H-imidazol-2-yl)methylidene]-5-{[1-(2-pyrrolidin-1-ylethyl)piperidin-4-yl]amino}-1,3-dihydro-2H-indol-2-one], the IC50 at Fyn was 50 to 500 nM; at FGFR1, 50 to 500 nM; against EphA2, 500 to 5000 nM; against EGFR it was more than 5000 nM; at PDGFR alpha, less than 50 nM; at IRK it was more than 5000 nM. In addition, the IC50 in assay [1] is less than 50 nM.
On to `CCN1CCC(Nc2ccc3c(c2)/C(=C(\c2ccc(C(F)(F)F)nc2)c2ncc[nH]2)C(=O)N3)CC1` [Entry 68], for which the IC50 against Fyn was 50 to 500 nM; on FGFR1, 50 to 500 nM; at EphA2 it was 500 to 5000 nM; at EGFR, more than 5000 nM; at PDGFR alpha it was less than 50 nM; against IRK, more than 5000 nM. The compound also displayed an IC50 in assay [1] of 50 to 500 nM.
Take `CCCc1ccc(/C(=C2/C(=O)Nc3ccc(NC4CCN(CC)CC4)cc32)c2ncc[nH]2)cc1` [Entry 59, (3Z)-5-[(1-ethylpiperidin-4-yl)amino]-3-[1H-imidazol-2-yl(4-propylphenyl)methylidene]-1,3-dihydro-2H-indol-2-one]: the IC50 on Fyn is less than 50 nM; against FGFR1, less than 50 nM; at EphA2, 500 to 5000 nM; against EGFR, 50 to 500 nM; at PDGFR alpha, less than 50 nM; on IRK it was 500 to 5000 nM. The compound also had a half-maximal inhibitory concentration (IC50) in assay [1] of less than 50 nM.
Take `COCCN1CCC(Nc2ccc3c(c2)/C(=C(\c2ccc(F)c(F)c2)c2ncc[nH]2)C(=O)N3)CC1` [Entry 79]: the half-inhibitory concentration (IC50) against Fyn was 50 to 500 nM; against FGFR1, 50 to 500 nM; on EphA2 it was 500 to 5000 nM; on EGFR it was more than 5000 nM; on PDGFR alpha, less than 50 nM; against IRK it was more than 5000 nM. In assay [1], this compound returned a concentration for half-maximal inhibition (IC50) of less than 50 nM.
For the compound `COCCN1CCC(Nc2ccc3c(c2)/C(=C(\c2cc(F)cc(F)c2)c2nc(C)c[nH]2)C(=O)N3)CC1` [Entry 76], the IC50 against Fyn was less than 50 nM; against FGFR1, less than 50 nM; against EphA2, 500 to 5000 nM; against EGFR it was 50 to 500 nM; at PDGFR alpha, less than 50 nM; on IRK, 500 to 5000 nM. The half-maximal inhibitory concentration (IC50) in assay [1] was less than 50 nM.
`COCCN1CCC(Nc2ccc3c(c2)/C(=C(\c2cc(F)cc(F)c2)c2ncc[nH]2)C(=O)N3)CC1` [Entry 75, (3Z)-3-[(3,5-difluorophenyl)(1H-imidazol-2-yl)methylidene]-5-({1-[2-(methyloxy)ethyl]piperidin-4-yl}amino)-1,3-dihydro-2H-indol-2-one]: the IC50 was less than 50 nM at Fyn; less than 50 nM at FGFR1; 500 to 5000 nM against EphA2; 50 to 500 nM on EGFR; less than 50 nM at PDGFR alpha; more than 5000 nM on IRK. In assay [1], this compound gave an IC50 of less than 50 nM.
As to `COCCN1CCC(Nc2ccc3c(c2)/C(=C(\c2ccc(C(F)(F)F)c(F)c2)c2ncc[nH]2)C(=O)N3)CC1` [Entry 92], the IC50 on Fyn was 50 to 500 nM; against FGFR1, 50 to 500 nM; on EphA2, 500 to 5000 nM; at EGFR it was more than 5000 nM; on PDGFR alpha, less than 50 nM; on IRK, more than 5000 nM. The same compound had an IC50 in assay [1] of less than 50 nM.
Turning to `CCN1CCC(Nc2ccc3c(c2)/C(=C(\c2cc(F)cc(F)c2)c2nc4cc(F)ccc4[nH]2)C(=O)N3)CC1` [Entry 62, (3Z)-3-[(3,5-difluorophenyl)(5-fluoro-1H-benzimidazol-2-yl)methylidene]-5-[(1-ethylpiperidin-4-yl)amino]-1,3-dihydro-2H-indol-2-one], the IC50 is less than 50 nM on Fyn; less than 50 nM at FGFR1; 500 to 5000 nM against EphA2; 50 to 500 nM at EGFR; less than 50 nM on PDGFR alpha; more than 5000 nM on IRK. The compound also showed an IC50 in assay [1] of less than 50 nM.
With `CCOC(=O)c1[nH]c(/C(=C2\C(=O)Nc3ccc(NC4CCN(CCOC)CC4)cc32)c2cccc(F)c2)nc1C` [Entry 88, ethyl 2-{(Z)-(3-fluorophenyl)[5-({1-[2-(methyloxy)ethyl]piperidin-4-yl}amino)-2-oxo-1,2-dihydro-3H-indol-3-ylidene]methyl}-4-methyl-1H-imidazole-5-carboxylate], the IC50 on Fyn is 50 to 500 nM; against FGFR1, 50 to 500 nM; at EphA2, more than 5000 nM; against EGFR, more than 5000 nM; on PDGFR alpha, less than 50 nM; on IRK, more than 5000 nM. In addition, the IC50 in assay [1] is 50 to 500 nM.
For the compound `COCCN1CCC(Nc2ccc3c(c2)/C(=C(\c2ccccc2)c2ncc[nH]2)C(=O)N3)CC1` [Entry 89], the IC50 at Fyn is less than 50 nM; on FGFR1, less than 50 nM; at EphA2, 500 to 5000 nM; against EGFR it was more than 5000 nM; at PDGFR alpha it was less than 50 nM; on IRK, 500 to 5000 nM. In addition, in assay [1], the IC50 is less than 50 nM.
With `COCCN1CCC(Nc2ccc3c(c2)/C(=C(\c2ccc(C)cc2)c2ncc[nH]2)C(=O)N3)CC1` [Entry 69], the IC50 is less than 50 nM against Fyn; less than 50 nM against FGFR1; 50 to 500 nM at EphA2; 50 to 500 nM at EGFR; less than 50 nM at PDGFR alpha; 500 to 5000 nM against IRK. Moreover, the IC50 in assay [1] was less than 50 nM.
On to `COCCN1CCC(Nc2ccc3c(c2)/C(=C(\c2ccc(C(F)(F)F)cc2)c2ncc[nH]2)C(=O)N3)CC1` [Entry 71], for which the IC50 against Fyn is 50 to 500 nM; against FGFR1, less than 50 nM; on EphA2, 500 to 5000 nM; on EGFR, more than 5000 nM; on PDGFR alpha, less than 50 nM; against IRK, more than 5000 nM. The IC50 in assay [1] is less than 50 nM.
For the compound `COCCN1CCC(Nc2ccc3c(c2)/C(=C(\c2ccc(F)cc2)c2ncc[nH]2)C(=O)N3)CC1` [Entry 78], the IC50 is 50 to 500 nM against Fyn; 50 to 500 nM against FGFR1; 500 to 5000 nM at EphA2; more than 5000 nM against EGFR; less than 50 nM on PDGFR alpha; more than 5000 nM on IRK. In assay [1], this compound came in with an IC50 of less than 50 nM.
